These are literature values, as cited in patent publication US7208615B2, “Triple mineral salts of (-)-hydroxycitric acid and processes for preparing the same” (Laila Impex, priority 2004, dated 2007).

The conditions of data set [1]: background art; forms lactone, liquid form unstable during storage.
For data set [2] the following is noted: background art (US 5,783,603).

`O=C(O)CC(O)(C(=O)O)C(O)C(=O)O` (single isomer, unassigned; (-)) [(−)-hydroxycitric acid]: in data set [1], the “stability of free acid form” value was “unstable”.
Regarding potassium salt of HCA, in data set [2], the hygroscopicity result is given as “hygroscopic”.
